PMC3598976, “Potent in vivo anti-malarial activity and representative snapshot pharmacokinetic evaluation of artemisinin-quinoline hybrids” (Malaria Journal, 2013)
“And” between values parts separate entries of the source, which are not always exact repeats. Equal entries are not always repeated. Where two headings read alike, the source gives them in different places.

Experiments:
[1] = tested on: Dd2 P. falciparum strain; set-up: method as in PMID 21316959; settings: previously determined, read-out: IC50 (nM) ± SD Dd2; cited from earlier work
[2] = tested on: 3D7 strain of P. falciparum; assay: In vitro anti-malarial activity against 3D7 strain ([3H]-hypoxanthine incorporation); assay type: cell-based, Plasmodium falciparum; settings: read-out: IC50 (nM) ± SD 3D7
Protocol: The 3D7 strain of P. falciparum was asexually cultured in human blood in complete medium (RPMI 1640 supplemented with 25 mM Hepes, pH 7.4) and 10% AB+ human serum. Drug effects were measured in microtitre plates on suspensions of asynchronous P. falciparum infected red blood cells (1.5% final haematocrit, 0.6% parasitaemia) according to Desjardins et al.[18]. Drugs, previously dissolved in DMSO, were diluted in culture medium so that the final DMSO concentration never exceeded 0.25%. […] Analyses of dose-effect curves were performed with the Graphpad Prism analytical software. […] Values are the means of at least two independent experiments (different cell cultures, different drug dilution stocks), each performed in duplicates.

[3] = tested on: D10 P. falciparum strain; set-up: method as in PMID 21316959; settings: previously determined, read-out: IC50 (nM) ± SD D10; cited from earlier work
[4] = tested on: Plasmodium vinckei (BY strain); assay: In vivo anti-malarial activity against P. vinckei in infected mice, four-day treatment; settings: for ED50: Plasmodium vinckei, in Mus musculus, 120 h
[5] = tested on: Plasmodium vinckei (BY strain); settings: mouse, in vivo
[6] = cited from earlier work
[7] = set-up: method as in PMID 17267300; settings: cited from earlier work

Question: Which IC50 [1] does the source give for `CCN(CC)CCCC(C)Nc1ccnc2cc(Cl)ccc12` (stereo not shown) [CQ, Chloroquine] here?
Answer: The IC50 was 158 ± 52.7 nM.

Question: What about the IC50 ([2]; Plasmodium falciparum, 3D7, 48 h) of the same molecule?
Answer: The IC50 was 20 ± 1.6 nM.

Question: And the IC50 [3]?
Answer: The IC50 was 21.5 ± 6.7 nM.

Question: Which results are given for `C[C@@H]1CCC2[C@@H](C)[C@@H](OCCNCCCNc3ccnc4cc(Cl)ccc34)O[C@@H]3O[C@@]4(C)CCC1[C@@]23OO4` (stereo partly shown) [Hybrid 3]?
Answer: ED50 ([4]; ip, read-out: ED50 ip): < 0.8 mg/kg; ED50 ([4]; po, read-out: ED50 per os): 13 mg/kg; Survival rate ([4]; at the same dosages (15 mg/kg ip, 50 mg/kg per os)): 66%; ED50ip/ ED50per os ratio (oral absorption) ([4]; in DMSO): < 6%; Parasitaemia on day 5, % of the control ([4]; ip 7.5 mg/kg D1-D4): 0.02%; Recrudescence ([4]; ip 7.5 mg/kg D1-D4): Recrudescence occurred; Parasitemia (%) D5 ([4]; ip 7.5 mg/kg D1-D4, Mean ± SEM): 0.02%; Parasitaemia on day 5, % of the control ([4]; ip 15 mg/kg D1-D4): 0.01%; Recrudescence ([4]; ip 15 mg/kg D1-D4): No recrudescence was observed for two of the three mice; Survival beyond day 20 ([4]; ip 15 mg/kg D1-D4): 66%; Mortality (day of death) ([4]; ip 15 mg/kg D1-D4, individual mice): 8; Dose giving complete cure / clearance of parasitaemia, ip ([4]; ip, four days, long-term monitoring): not obtained; Recrudescence ([4]; per os 25 mg/kg D1-D4): Delayed recrudescence; Parasitaemia on day 5, % of the control ([4]; per os 50 mg/kg D1-D4): 0.01%; Recrudescence ([4]; per os 50 mg/kg D1-D4): 2 of the 3 mice showed no recrudescence; Survival beyond day 17 ([4]; per os 50 mg/kg D1-D4): 66%; Dose giving complete cure / clearance of parasitaemia, per os ([4]; per os, four days, long-term monitoring): not obtained; Parasitemia (%) D5 ([4]; po 25 mg/kg D1-D4, Mean ± SEM, 25 mg/kg): 0.02%; Parasitemia (%) D5 ([4]; po 25 mg/kg D1-D4, Mean ± SEM, listed as hybrid 3, 25 mg/kg): less than 10%; Mortality (day of death) ([4]; po 25 mg/kg D1-D4, individual mice): 15; Parasitemia (%) D5 ([4]; po 50 mg/kg D1-D4, Mean ± SEM): 0.01%; Mortality (day of death) ([4]; po 50 mg/kg D1-D4, individual mice): 18; Parasitemia (%) D17 ([4]; po 50 mg/kg D1-D4, individual mice, 50 mg/kg): no visualized parasitaemia and 51%; IC50 [1]: 19.8 ± 0.3 nM; IC50 ([2]; 3D7 strain, 48 h incubation): 5.2 ± 0.7 nM; IC50 ([2]; Plasmodium falciparum, 3D7, 48 h, 3D7 strain, 48 h incubation): 5.15 nM; IC50 [3]: 14.3 ± 2.7 nM

Question: With `C[C@H]1[C@H](OC(=O)CCC(=O)O)O[C@@H]2O[C@@]3(C)CC[C@H]4[C@H](C)CC[C@@H]1[C@@]24OO3` [Artesunate, reference compound] as the molecule, how does the ED50 ([4]; ip, read-out: ED50 ip) read?
Answer: The ED50 was < 1 mg/kg.

Question: And the ED50 ([4]; po, read-out: ED50 per os)?
Answer: Its ED50 is 1.8 mg/kg.

Question: What about the “Reduction of parasitaemia at day 5” value ([4]; ip 1 mg/kg/day, four days) of the same molecule?
Answer: Its value is 70%.

Question: And the “Parasitaemia remaining after treatment” value ([4]; ip 30 mg/kg/day, four days)?
Answer: Its value is 3%.

Question: And the Survival ([4]; ip 30 mg/kg/day, four days)?
Answer: Its Survival is 50%.

Question: What about the “Curative dose relative to ED50” value ([4]; ip and per os) of the same molecule?
Answer: The value was “about 40 times”.

Question: And the Decrease of parasitaemia ([4]; per os 4 mg/kg/day, four days)?
Answer: Its Decrease of parasitaemia is 93%.

Question: What about the “Dose giving complete cure / clearance of parasitaemia, per os” value [5] of the same molecule?
Answer: The value was 80 mg/kg.

Question: What does the source list for `C[C@H]1[C@@H](O)O[C@@H]2O[C@@]3(C)CC[C@H]4[C@H](C)CC[C@@H]1[C@@]24OO3` [DHA, Dihydroartemisinin]?
Answer: Half-life ip [6]: 25 min; IC50 [1]: 2.1 ± 0.3 nM; AUC [7]: 8748 ± 2016 ng·min/mL; Clearance rate [7]: 1190 mL/min/kg; Oral volume of distribution [7]: 353.5 ± 194.9 L/kg; Maximum concentration ([7]; dose of 10 mg/kg): 142.2 ± 21.1 ng/mL; Time to maximum concentration ([7]; dose of 10 mg/kg): 48 ± 6 min; IC50 [3]: 5.1 ± 0.6 nM
